Measured values taken from patent publication US8084649B2, “Herbicides” (Syngenta Crop Protection, inc., priority 2007, dated 2011).

Tests used:
Format in all cases: in vivo
[1] = system: Alopecurus myosuroides (ALOMY); assay: Pre-emergence herbicidal activity, glasshouse pot test; conditions: Alopecurus myosuroides, 480 h, rate 500 g/ha, evaluated after 20 days, read-out: Pre-emergence activity, ALOMY (100=total damage to plant; 0=no damage to plant)
Procedure, shortened: (§1)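 Test compound, taken up in acetone with an Emulsogen EL/NMP/dipropylene glycol monomethyl ether/X-77 formulant and diluted with water, was sprayed onto soil of freshly sown pots after one day of cultivation. Evaluation at 20 days used a 0–100 injury rating.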

[2] = system: Avena fatua (AVEFA); assay: as above; conditions: Avena fatua, 480 h, rate 500 g/ha, evaluated after 20 days, read-out: Pre-emergence activity, AVEFA (100=total damage to plant; 0=no damage to plant)
Procedure, shortened: as §1

[3] = system: Digitaria sanguinalis (DIGSA); assay: as above; conditions: Digitaria sanguinalis, 480 h, rate 500 g/ha, evaluated after 20 days, read-out: Pre-emergence activity, DIGSA (100=total damage to plant; 0=no damage to plant)
Procedure, shortened: as §1

[4] = system: Echinochloa crus-galli (ECHCG); assay: as above; conditions: Echinochloa crus-galli, 480 h, rate 500 g/ha, evaluated after 20 days, read-out: Pre-emergence activity, ECHCG (100=total damage to plant; 0=no damage to plant)
Procedure, shortened: as §1

[5] = system: Lolium perenne (LOLPE); assay: as above; conditions: Lolium perenne, 480 h, rate 500 g/ha, evaluated after 20 days, read-out: Pre-emergence activity, LOLPE (100=total damage to plant; 0=no damage to plant)
Procedure, shortened: as §1

[6] = system: Setaria faberi (SETFA); assay: as above; conditions: Setaria faberi, 480 h, rate 500 g/ha, evaluated after 20 days, read-out: Pre-emergence activity, SETFA (100=total damage to plant; 0=no damage to plant)
Procedure, shortened: as §1

[7] = system: Alopecurus myosuroides (ALOMY); assay: Post-emergence herbicidal activity, glasshouse pot test; conditions: Alopecurus myosuroides, evaluated after 14 or 15 days, read-out: Post-emergence activity, ALOMY (100=total damage to plant; 0=no damage to plant); for pest or weed control at 125 g/ha: rate 125 g/ha; for pest or weed control at 500 g/ha: rate 500 g/ha
Procedure, shortened: (§2)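 Post-emergence spray on 10-day-old potted plants (sterilised standard soil, controlled glasshouse conditions); spray solution from technical compound in acetone with Emulsogen EL, N-methylpyrrolidone, dipropylene glycol monomethyl ether and X-77. Rated 14–15 d later, 0 = no damage, 100 = total damage.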

[8] = system: Avena fatua (AVEFA); assay: as above; conditions: Avena fatua, evaluated after 14 or 15 days, read-out: Post-emergence activity, AVEFA (100=total damage to plant; 0=no damage to plant); for pest or weed control at 125 g/ha: rate 125 g/ha; for pest or weed control at 500 g/ha: rate 500 g/ha
Procedure, shortened: as §2

[9] = system: Digitaria sanguinalis (DIGSA); assay: as above; conditions: Digitaria sanguinalis, evaluated after 14 or 15 days, read-out: Post-emergence activity, DIGSA (100=total damage to plant; 0=no damage to plant); for pest or weed control at 125 g/ha: rate 125 g/ha; for pest or weed control at 500 g/ha: rate 500 g/ha
Procedure, shortened: as §2

[10] = system: Echinochloa crus-galli (ECHCG); assay: as above; conditions: Echinochloa crus-galli, evaluated after 14 or 15 days, read-out: Post-emergence activity, ECHCG (100=total damage to plant; 0=no damage to plant); for pest or weed control at 125 g/ha: rate 125 g/ha; for pest or weed control at 500 g/ha: rate 500 g/ha
Procedure, shortened: as §2

[11] = system: Lolium perenne (LOLPE); assay: as above; conditions: Lolium perenne, evaluated after 14 or 15 days, read-out: Post-emergence activity, LOLPE (100=total damage to plant; 0=no damage to plant); for pest or weed control at 125 g/ha: rate 125 g/ha; for pest or weed control at 500 g/ha: rate 500 g/ha
Procedure, shortened: as §2

[12] = system: Setaria faberi (SETFA); assay: as above; conditions: Setaria faberi, evaluated after 14 or 15 days, read-out: Post-emergence activity, SETFA (100=total damage to plant; 0=no damage to plant); for pest or weed control at 125 g/ha: rate 125 g/ha; for pest or weed control at 500 g/ha: rate 500 g/ha
Procedure, shortened: as §2

Row | Structure (SMILES) | pest or weed control at 500 g/ha [1] | pest or weed control at 500 g/ha [2] | pest or weed control at 500 g/ha [3] | pest or weed control at 500 g/ha [4] | pest or weed control at 500 g/ha [5] | pest or weed control at 500 g/ha [6] | pest or weed control at 125 g/ha [7] | pest or weed control at 125 g/ha [8] | pest or weed control at 125 g/ha [9] | pest or weed control at 125 g/ha [10] | pest or weed control at 125 g/ha [11] | pest or weed control at 125 g/ha [12] | pest or weed control at 500 g/ha [7] | pest or weed control at 500 g/ha [8] | pest or weed control at 500 g/ha [9] | pest or weed control at 500 g/ha [10] | pest or weed control at 500 g/ha [11] | pest or weed control at 500 g/ha [12]
1 | CCc1cc(C)cc(CC)c1C1=C(OS(=O)(=O)Cc2ccccc2)CC2(CCOCC2)CC1=O [Compound P26] | 80% | 80% | 60% | 40% | 90% | 70% | 10% | 0% | 10% | 0% | 0% | 0% | – | – | – | – | – | –
2 | CCc1cc(C)cc(CC)c1C1=C(OS(=O)(=O)CC(F)(F)F)CC2(CCOCC2)CC1=O [Compound P27] | 100% | 100% | 100% | 100% | 100% | 100% | 70% | 50% | 70% | 70% | 70% | 50% | – | – | – | – | – | –
3 | CCCS(=O)(=O)OC1=C(c2c(CC)cc(C)cc2CC)C(=O)CC2(CCOCC2)C1 [Compound P29] | 60% | 60% | 80% | 10% | 60% | 60% | 30% | 0% | 50% | 30% | 10% | 30% | – | – | – | – | – | –
4 | CCc1cc(C)cc(CC)c1C1=C(OC)CC2(CCOCC2)CC1=O [Compound P32] | 100% | 100% | 50% | 20% | 100% | 10% | 20% | 0% | 0% | 0% | 0% | 0% | – | – | – | – | – | –
5 | CCOC1=C(c2c(CC)cc(C)cc2CC)C(=O)CC2(CCOCC2)C1 [Compound P33] | 90% | 30% | 70% | 10% | 50% | 10% | 20% | 0% | 30% | 0% | 0% | 0% | – | – | – | – | – | –
6 | CCCCCCCCCCCC(=O)OC1=C(c2c(CC)cc(C)cc2CC)C(=O)CC2(CCOCC2)C1 [Compound P44] | 100% | 100% | 100% | 100% | 100% | 100% | 80% | 90% | 100% | 90% | 90% | 90% | – | – | – | – | – | –
7 | CCCCCCCCCCCCCCCC(=O)OC1=C(c2c(CC)cc(C)cc2CC)C(=O)CC2(CCOCC2)C1 [Compound P45] | 80% | 100% | 100% | 100% | 100% | 100% | 30% | 60% | 20% | 10% | 0% | 10% | – | – | – | – | – | –
8 | CCc1cc(C)cc(CC)c1C1=C(OC(=O)CCCCCCC(=O)OC)CC2(CCOCC2)CC1=O [Compound P46] | 100% | 100% | 100% | 100% | 100% | 100% | 90% | 100% | 90% | 100% | 90% | 90% | – | – | – | – | – | –
9 | C=CCCCCCCCCC(=O)OC1=C(c2c(CC)cc(C)cc2CC)C(=O)CC2(CCOCC2)C1 [Compound P47] | 100% | 100% | 100% | 100% | 100% | 100% | 70% | 60% | 70% | 70% | 50% | 60% | – | – | – | – | – | –
10 | CCc1cc(CC)c(C2=C(OC(=O)C(C)(C)C)CC3(CCOCC3)CC2=O)c(CC)c1 [Compound P49] | 100% | 60% | 100% | 100% | 100% | 100% | – | – | – | – | – | – | 60% | 10% | 90% | 90% | 50% | 80%
11 | COC1CCC2(CC1)CC(=O)C(c1cc(C)ccc1C)=C(OC(=O)CC(C)(C)C)C2 (stereo not drawn) [Compound P56] | 100% | 60% | 100% | 80% | 60% | 100% | – | – | – | – | – | – | 70% | 10% | 80% | 80% | 70% | 70%
12 | CCc1cc(C)cc(CC)c1C1=C(OC(=O)C(C)(C)C)CC2(CCCSC2)CC1=O (stereo not drawn) [Compound P59] | 20% | 10% | 100% | 50% | 10% | 70% | 40% | 0% | 80% | 30% | 20% | 60% | – | – | – | – | – | –
13 | CCc1cc(C)cc(CC)c1C1=C(OC(=O)C(C)(C)C)CC(CC(C)SC(C)C)CC1=O (stereo not drawn) [Compound P60] | 80% | 0% | 100% | 90% | 100% | 90% | 70% | 50% | 60% | 70% | 70% | 60% | – | – | – | – | – | –
